Reference: patent US20260001847A1, “HERBICIDAL QUINOLONE DERIVATIVES” (SYNGENTA CROP PROTECTION AG, priority 2022, published 2026)
Marks after values point to notes of the source that are not given here.

Columns and labels:
Type in all cases: in vivo
[1] = tested on: Echinochloa crus-galli (ECHCG); test: Pre-emergence Test; details: 1000 g/ha, evaluated after 13 days
[2] = tested on: Amaranthus palmeri (AMAPA); test: Pre-emergence Test; details: evaluated after 13 days
[3] = tested on: Zea mays (ZEAMX); test: Pre-emergence Test; details: 1000 g/ha, evaluated after 13 days
[4] = tested on: Setaria faberi (SETFA); test: Pre-emergence Test; details: 1000 g/ha, evaluated after 13 days
[5] = tested on: Amaranthus retoflexus (AMARE); test: Post-emergence Test; details: evaluated after 13 days
Description: (§1) Seeds of a variety of test species are sown in standard soil in pots (Abutilon theophrasti (ABUTH), Ipomoea hederacea (IPOHE). Setaria faberi (SETFA), Echinochloa crus-galli (ECHCG), Zea mays (ZEAMX), Amaranthus retoflexus (AMARE), Solanum nigrum (SOLNI), Lolium perenne (LOLPE), Amaranthus palmeri (AMAPA)). After 8 days cultivation under controlled conditions in a glasshouse (at 24° C./16° C., day/night-; 14 hours light; 65% humidity), the plants are sprayed with an aqueous spray solution derived from the formulation of the technical active ingredient in acetone/water (50:50) solution containing 0.5% Tween 20 (polyoxyethylene sorbitan monolaurate, CAS RN 9005-64-5). Compounds are applied at 1000 g/ha unless otherwise stated. The test plants are then grown in a glasshouse under controlled conditions in a glasshouse (at 24° C./16° C., day/night; 14 hours light; 65% humidity) and watered twice daily. After 13 days the test is evaluated for the percentage damage caused to the plant. The biological activities are shown in the following table on a five-point scale (5=81-100%; 4=61-80%; 3=41-60%; 2=21-40%; 1=0-20%; -=not tested).

[6] = tested on: Setaria faberi (SETFA); test: Post-emergence Test; details: evaluated after 13 days
Description: as §1

[7] = tested on: Ipomoea hederacea (IPOHE); test: Post-emergence Test; details: evaluated after 13 days
Description: as §1

[8] = tested on: Amaranthus palmeri (AMAPA); test: Post-emergence Test; details: evaluated after 13 days
Description: as §1

[9] = tested on: Zea mays (ZEAMX); test: Post-emergence Test; details: evaluated after 13 days
Description: as §1

[10] = tested on: Echinochloa crus-galli (ECHCG); test: Post-emergence Test; details: evaluated after 13 days
Description: as §1

[11] = tested on: Ipomoea hederacea (IPOHE); test: Pre-emergence Test; details: evaluated after 13 days
[12] = tested on: Amaranthus retoflexus (AMARE); test: Pre-emergence Test; details: evaluated after 13 days

Compound | percentage damage caused to the plant, ECHCG [1] | percentage damage caused to the plant, ZEAMX [3] | percentage damage caused to the plant, SETFA [4] | percentage damage caused to the plant, AMARE ([5]; 1000 g/ha) | percentage damage caused to the plant, SETFA ([6]; 1000 g/ha) | percentage damage caused to the plant, IPOHE ([7]; 1000 g/ha) | percentage damage caused to the plant, AMAPA ([8]; 1000 g/ha) | percentage damage caused to the plant, ZEAMX ([9]; 1000 g/ha) | percentage damage caused to the plant, ECHCG ([10]; 1000 g/ha) | percentage damage caused to the plant, IPOHE ([11]; 1000 g/ha) | other results
CCn1c(-c2ccc(Cl)c(Cl)c2)c(C(=O)O)c(=O)c2c(Br)cccc21 [Compound 4, 5-bromo-2-(3,4-dichlorophenyl)-1-ethyl-4-oxo-quinoline-3-carboxylic acid] | 5 (5=81-100%) | 3 (3=41-60%) | 5 (5=81-100%) | 0 | 1 (1=0-20%) | 1 (1=0-20%) | 0 | 1 (1=0-20%) | 1 (1=0-20%) | 1 (1=0-20%) | percentage damage caused to the plant, AMAPA ([2]; 1000 g/ha): 2 (2=21-40%); percentage damage caused to the plant, AMARE ([12]; 1000 g/ha): 1 (1=0-20%)
CCn1c(-c2ccc(Cl)c(Cl)c2)c(C(=O)O)c(=O)c2cc(Cl)ccc21 [Compound 5, 6-chloro-2-(3,4-dichlorophenyl)-1-ethyl-4-oxo-quinoline-3-carboxylic acid] | 0 | 1 (1=0-20%) | 2 (2=21-40%) | 1 (1=0-20%) | 4 (4=61-80%) | 1 (1=0-20%) | 1 (1=0-20%) | 2 (2=21-40%) |  | 0 | 
CCn1c(-c2ccc(Cl)c(Cl)c2)c(C(=O)O)c(=O)c2cc(F)ccc21 [Compound 6, 2-(3,4-dichlorophenyl)-1-ethyl-6-fluoro-4-oxo-quinoline-3-carboxylic acid] | 5 (5=81-100%) | 0 | 5 (5=81-100%) | 1 (1=0-20%) | 4 (4=61-80%) | 3 (3=41-60%) | 3 (3=41-60%) | 4 (4=61-80%) | 4 (4=61-80%) | 0 | 
CCn1c(-c2ccc(Cl)c(Cl)c2)c(C(=O)O)c(=O)c2cc(C#N)ccc21 [Compound 7, 6-cyano-2-(3,4-dichlorophenyl)-1-ethyl-4-oxo-quinoline-3-carboxylic acid] | 5 (5=81-100%) | 3 (3=41-60%) | 5 (5=81-100%) | 3 (3=41-60%) | 4 (4=61-80%) | 2 (2=21-40%) | 4 (4=61-80%) | 3 (3=41-60%) |  | 1 (1=0-20%) | 
CCn1c(-c2ccc(Cl)c(Cl)c2)c(C(=O)O)c(=O)c2cc(-c3ccc(F)cc3)ccc21 [Compound 9, 2-(3,4-dichlorophenyl)-1-ethyl-6-(4-fluorophenyl)-4-oxo-quinoline-3-carboxylic acid] | 3 (3=41-60%) | 1 (1=0-20%) | 4 (4=61-80%) | 2 (2=21-40%) | 0 | 2 (2=21-40%) | 2 (2=21-40%) | 0 | 0 | 1 (1=0-20%) | 
CCn1c(-c2ccc(Cl)c(Cl)c2)c(C(=O)O)c(=O)c2cc(C(N)=O)ccc21 [Compound 10, 6-carbamoyl-2-(3,4-dichlorophenyl)-1-ethyl-4-oxo-quinoline-3-carboxylic acid] | 0 | 2 (2=21-40%) | 0 | 2 (2=21-40%) | 4 (4=61-80%) | 1 (1=0-20%) | 4 (4=61-80%) | 2 (2=21-40%) |  | 0 | 
CCn1c(-c2ccc(Cl)c(Cl)c2)c(C(=O)O)c(=O)c2ccc(C(F)(F)F)cc21 [Compound 13, 2-(3,4-dichlorophenyl)-1-ethyl-4-oxo-7-(trifluoromethyl)quinoline-3-carboxylic acid] | 0 | 0 | 0 | 2 (2=21-40%) | 1 (1=0-20%) | 0 | 1 (1=0-20%) | 1 (1=0-20%) | 2 (2=21-40%) | 0 | 
CCn1c(-c2ccc(Cl)c(Cl)c2)c(C(=O)O)c(=O)c2cc(C(F)(F)F)ccc21 [Compound 16, 2-(3,4-dichlorophenyl)-1-ethyl-4-oxo-6-(trifluoromethyl)quinoline-3-carboxylic acid] | 5 (5=81-100%) | 1 (1=0-20%) | 5 (5=81-100%) | 0 | 4 (4=61-80%) | 2 (2=21-40%) | 0 | 3 (3=41-60%) | 4 (4=61-80%) | 1 (1=0-20%) | percentage damage caused to the plant, AMARE ([12]; 1000 g/ha): 1 (1=0-20%)
CCn1c(-c2ccc(Cl)c(Cl)c2)c(C(=O)O)c(=O)c2c(C#N)cccc21 [Compound 17, 5-cyano-2-(3,4-dichlorophenyl)-1-ethyl-4-oxo-quinoline-3-carboxylic acid] |  |  |  |  |  |  |  |  |  |  | percentage damage caused to the plant, AMAPA ([2]; 250 g/ha): 1* (1=0-20%); percentage damage caused to the plant, AMARE ([5]; 250 g/ha): 2* (2=21-40%); percentage damage caused to the plant, SETFA ([6]; 250 g/ha): 1* (1=0-20%); percentage damage caused to the plant, IPOHE ([7]; 250 g/ha): 2* (2=21-40%); percentage damage caused to the plant, AMAPA ([8]; 250 g/ha): 2* (2=21-40%); percentage damage caused to the plant, ZEAMX ([9]; 250 g/ha): 0*; percentage damage caused to the plant, ECHCG ([10]; 250 g/ha): 1* (1=0-20%); percentage damage caused to the plant, IPOHE ([11]; 250 g/ha): 1* (1=0-20%); percentage damage caused to the plant, AMARE ([12]; 250 g/ha): 1* (1=0-20%)
CC(=O)c1cccc2c1c(=O)c(C(=O)O)cn2-c1ccc(OC(F)(F)F)cc1 [Compound 19, 5-acetyl-4-oxo-1-[4-(trifluoromethoxy)phenyl]quinoline-3-carboxylic acid] | 3 (3=41-60%) | 0 | 3 (3=41-60%) | 0 | 3 (3=41-60%) | 1 (1=0-20%) | 2 (2=21-40%) | 3 (3=41-60%) | 4 (4=61-80%) | 0 | 
